Earlier results as cited in patent publication US20050085455A1, “Photodynamic therapy for local adipocyte reduction” (Light Sciences Corporation, priority 2003, published 2005).

Conditions: systemically administered sensitizer in clinical use; for duration of skin sensitization: result in words

Row | Compound | duration of skin sensitization | duration of photosensitivity (skin photosensitivity)
1 | CCOC(=O)C1=Cc2c3nc(cc4nc(cc5[n-]c(cc6[n-]c2c(C)c6CC)c(C)c5CC)C(C)=C4CC)[C@@H](C)[C@]13CC.[Cl-].[Cl-].[Sn] (racemic) [Purlytin] | several weeks | 
2 | Oc1cccc(-c2c3nc(c(-c4cccc(O)c4)c4ccc([nH]4)c(-c4cccc(O)c4)c4nc(c(-c5cccc(O)c5)c5ccc2[nH]5)CC4)C=C3)c1 [Foscan] | several weeks | 
3 | sodium porfimer [Photophrin] |  | up to 6 weeks
